Our source for the MIC values is patent US4362743A, “Antibacterial monic acid esters” (Beecham Group Limited, priority 1980, dated 1982).

What all share (format): cell-based
The subject of one assay is M. suipneumoniae JF 435. The assay can be described thus: Anti-mycoplasmal activity in vitro MIC. To be noted: Mesomycoplasma hyopneumoniae, JF435, 144 h; M. suipneumoniae JF 435; Friis broth, 0.9% agarose, 6 days 37° C.; read-out: M.I.C.
The test system of a further assay is M. bovis NCTC 10131. The assay is described as follows: microbe, parasite or virus in culture. The settings on record: NCTC10131, 144 h.
For assay [1], the system named is M. suipneumoniae NCTC 10110. The assay can be described thus: Anti-mycoplasmal activity in vitro MIC. To be noted: Mesomycoplasma hyopneumoniae, NCTC10110, 144 h; M. suipneumoniae NCTC 10110; Friis broth, 0.9% agarose, 6 days 37° C.; read-out: M.I.C.
For assay [2], the system named is M. suipneumoniae ATCC 25095. The assay can be described thus: Anti-mycoplasmal activity in vitro MIC. The settings on record: Mesomycoplasma hyopneumoniae, ATCC25095, 144 h.
Assay [3] concerns M. hyosynoviae ATCC 25591. The assay can be described thus: Anti-mycoplasmal activity in vitro MIC. To be noted: 144 h.
The test system of the next assay is M. suipneumoniae TAM 6N. The assay can be described thus: Anti-mycoplasmal activity in vitro MIC. The settings on record: Mesomycoplasma hyopneumoniae, TAM6N, 144 h; M. suipneumoniae TAM 6N; Friis broth, 0.9% agarose, 6 days 37° C.; read-out: M.I.C.
The subject of the next assay is M. suipneumoniae UCD 1. The assay is described as follows: Anti-mycoplasmal activity in vitro MIC. To be noted: Mesomycoplasma hyopneumoniae, UCD1, 144 h; M. suipneumoniae UCD 1; Friis broth, 0.9% agarose, 6 days 37° C.; read-out: M.I.C.
Another assay relates to M. gallisepticum S6. The assay is described as follows: Anti-mycoplasmal activity in vitro MIC. To be noted: Mycoplasmoides gallisepticum, 144 h; M. gallisepticum S6; Friis broth, 0.9% agarose, 6 days 37° C.; read-out: M.I.C.
In a further assay the test system is M. suipneumoniae Str. 11. The assay can be described thus: Anti-mycoplasmal activity in vitro MIC. The settings on record: Mesomycoplasma hyopneumoniae, STR.11, 144 h.
In a further assay the test system is M. suipneumoniae MS16. The assay is described as follows: Anti-mycoplasmal activity in vitro MIC. The settings on record: Mesomycoplasma hyopneumoniae, MS16, 144 h.
The next assay deals with M. hyorhinis ATCC 23234. The assay can be described thus: Anti-mycoplasmal activity in vitro MIC. To be noted: Mesomycoplasma hyorhinis, ATCC23234, 144 h.
Assay [4] has as its system M. bovigenitalium ATCC 14173. The assay is described as follows: Anti-mycoplasmal activity in vitro MIC. To be noted: 144 h; M. bovigenitalium ATCC 14173; Friis broth, 0.9% agarose, 6 days 37° C.; read-out: M.I.C.
The test system of assay [5] is M. suipneumoniae J2206/183b. The assay is described as follows: Anti-mycoplasmal activity in vitro MIC. To be noted: Mesomycoplasma hyopneumoniae, 144 h; M. suipneumoniae J2206/183b; Friis broth, 0.9% agarose, 6 days 37° C.; read-out: M.I.C.
Assay [6] relates to M. suipneumoniae PW/C/210. The assay is described as follows: Anti-mycoplasmal activity in vitro MIC. To be noted: Mesomycoplasma hyopneumoniae, 144 h.
For another assay, the system named is M. suipneumoniae LABER. The assay can be described thus: Anti-mycoplasmal activity in vitro MIC. To be noted: Mesomycoplasma hyopneumoniae, 144 h.
Another assay has as its system M. suipneumoniae NB12. The assay can be described thus: Anti-mycoplasmal activity in vitro MIC. The settings on record: Mesomycoplasma hyopneumoniae, NB12, 144 h.
The test system of the next assay is M. dispar NCTC 10125. The assay can be described thus: Anti-mycoplasmal activity in vitro MIC. To be noted: 144 h.
The next assay relates to M. pneumoniae ATCC 15492. The assay can be described thus: Anti-mycoplasmal activity in vitro MIC. The settings on record: Mycoplasmoides pneumoniae, ATCC15492, 144 h.
The next assay has as its system M. suipneumoniae HK (2). The assay is described as follows: Anti-mycoplasmal activity in vitro MIC. The settings on record: Mesomycoplasma hyopneumoniae, 144 h; M. suipneumoniae HK (2); Friis broth, 0.9% agarose, 6 days 37° C.; read-out: M.I.C.
For a further assay, the system named is M. hyorhinis ATCC 25021. The assay can be described thus: Anti-mycoplasmal activity in vitro MIC. To be noted: Mesomycoplasma hyorhinis, ATCC25021, 144 h.

In brackets after ≈: the same amount, converted by molar mass.

In the case of `C/C(=C\C(=O)OCc1cccc(C=NO)c1)C[C@@H]1OC[C@H](C[C@@H]2O[C@H]2[C@@H](C)[C@H](C)O)[C@@H](O)[C@H]1O` [Example 8, m-Hydroxyiminomethylbenzyl monate A], the MIC with M. suipneumoniae JF 435 is 0.5 µg/mL (≈ 1.05 µM); in the assay on M. bovis NCTC 10131 it was not above 0.01 µg/mL; in assay [1], 0.5 µg/mL (≈ 1.05 µM); in [2], 0.25 µg/mL (≈ 0.524 µM); in [3] it was 0.25 µg/mL (≈ 0.524 µM); in the assay on M. suipneumoniae TAM 6N it was 0.5 µg/mL (≈ 1.05 µM). Also, the MIC came to 0.5 µg/mL (≈ 1.05 µM) in the assay with M. suipneumoniae UCD 1; 5 µg/mL (≈ 10.5 µM) in the assay on M. gallisepticum S6; 0.25 µg/mL (≈ 0.524 µM) against M. suipneumoniae Str. 11; 0.25 µg/mL (≈ 0.524 µM) with M. suipneumoniae MS16; 0.25 µg/mL (≈ 0.524 µM) in the assay with M. hyorhinis ATCC 23234; 0.025 µg/mL (≈ 0.0524 µM) in assay [4]. In addition, the MIC in [5] worked out at 0.5 µg/mL (≈ 1.05 µM); in assay [6], 0.25 µg/mL (≈ 0.524 µM); in the assay on M. suipneumoniae LABER it was 0.25 µg/mL (≈ 0.524 µM); in the assay with M. suipneumoniae NB12, 0.25 µg/mL (≈ 0.524 µM); against M. dispar NCTC 10125 it was 0.1 µg/mL (≈ 0.209 µM); with M. pneumoniae ATCC 15492, 2.5 µg/mL (≈ 5.24 µM). The results for the MIC in the assay on M. suipneumoniae HK (2) and in the assay on M. hyorhinis ATCC 25021 were 0.5 µg/mL (≈ 1.05 µM) and 0.25 µg/mL (≈ 0.524 µM), respectively.
